Test results reported in ChEMBL document CHEMBL2062404, “Purification and antiradical properties of the structural unit of betalains” (J Nat Prod, 2012).
Calls of active or inactive are those of the source. No cut-off for these calls is given here.

How the values were obtained:
Format in all cases: functional
[1] = Antioxidant activity against ABTS radical assessed as trolox equivalent after 24 hr at pH 7
[2] = Antioxidant activity against ABTS radical assessed as trolox equivalent at 50 uM after 24 hr at pH 5.5
[3] = Antioxidant activity against ABTS radical assessed as trolox equivalent at 50 uM after 24 hr at pH >5.5
[4] = Antioxidant activity assessed as ferric ion reduction by 2,4,6-tris(2- pyridyl)-s-triazine-based spectrophotometry

SMILES | Activity [1] | Activity [2] | Activity [3] | Activity [4]
Oc1ccc(/C=C/c2cc(O)cc(O)c2)cc1 | 2.7 equiv |  |  | 
O=C/C=C1/C=C(C(=O)O)N[C@H](C(=O)O)C1 | 2.7 equiv | inactive | Active | Active
